For assay [1], the system named is 786-O VHL^mCh (VHL-reconstituted) cells. The assay is described as follows: Western blot for Caspase 9 and Bcl-xL. It counts as cell-based, human. Conditions: 24 hours. How it is done: (§1) Figure 2 Homoharringtonine (HHT) preferentially induces cell death in VHL-deficient 786-O cells A. 786-O cells with VHL mutation (green) or with VHL-reconstituted (red) were treated with different concentrations of HHT (0, 25, 50, or 100 nM) for 0, 6, 12, 24, 36, or 48 hours, and cell death was measured by trypan blue exclusion assay (n = 3 for each concentration and time point; *p < 0.05, **p < 0.001, ***p < 0.0001 between 786-O EV cells and 786-O with VHL reconstituted at the same concentration and time point). B. […] Blots were probed for Bcl-xL and Caspase 9, and α-Tubulin as loading control. Arrow indicates the cleaved Caspase 9 product.
(In general: In western blotting, separated proteins are transferred to a membrane and probed.)

Assay [2] relates to 786-O EV^GFP (VHL-deficient) cells. The assay is described as follows: Western blot for Caspase 9 and Bcl-xL. It counts as cell-based, human. The method, then:
as §1

As to `COC(=O)C[C@](O)(CCCC(C)(C)O)C(=O)O[C@@H]1C(OC)=C[C@]23CCCN2CCc2cc4c(cc2[C@H]13)OCO4` [HHT, homoharringtonine], the Bcl-xL expression entry in assay [1] is reported as “upregulated”; in assay [2] (24 hours) it was “not upregulated”. For the same compound, the “caspase 9 cleavage” value in assay [2] (50 nM and 100 nM, within 12 hours) was “observed”.

(Values after PMC4627284, “High-throughput simultaneous screen and counterscreen identifies homoharringtonine as synthetic lethal with von Hippel-Lindau loss in renal cell carcinoma” (Oncotarget, 2015).)
